The record followed here is patent publication US20110212475A1, “Fluorescently Or Spin-Labeled Kinases For Rapid Screening And Identification Of Novel Kinase Inhibitor Scaffolds” (priority 2008, published 2011).

p38α (Homo sapiens, UniProt Q16539), sequence (Q16539 whole entry): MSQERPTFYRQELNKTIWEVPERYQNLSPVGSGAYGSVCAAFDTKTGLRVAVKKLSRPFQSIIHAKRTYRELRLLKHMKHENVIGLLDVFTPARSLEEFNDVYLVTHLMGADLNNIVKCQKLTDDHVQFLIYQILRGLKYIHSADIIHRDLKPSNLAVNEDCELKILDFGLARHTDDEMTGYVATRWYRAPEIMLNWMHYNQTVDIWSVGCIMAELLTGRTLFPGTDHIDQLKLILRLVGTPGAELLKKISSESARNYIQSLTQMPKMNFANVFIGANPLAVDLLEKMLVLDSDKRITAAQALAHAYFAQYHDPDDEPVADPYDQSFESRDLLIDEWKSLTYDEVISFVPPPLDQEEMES

The target of one assay is T1, p38α (Homo sapiens, UniProt Q16539, A172C/C119S/C162S/F327L).
T1 construct: His-tag with PreScission site (N, cleaved yes); GST (N); made in house; host or cells: E. coli BL21(DE3)
T1 sequence (Q16539 whole entry C119S/C162S/A172C/F327L): as the sequence (Q16539 whole entry) above, with C119S, C162S, A172C, F327L counted along it
Put plainly: acrylodan-labeled p38α (ac-p38α) fluorescence binding assay, endpoint Kd measurements. The conditions noted are these: endpoint measurements.
Consider `CC(C)(C)c1cc(NC(=O)Nc2ccc(Cl)cc2)n(-c2ccc(C(F)(F)F)cc2Cl)n1` [7, RL19], for which the “fluorescence response of ac-p38α” value is “complete lack of fluorescence response”.

The same assay, now with this note: pyrazolourea derivatives of BIRB-796; 50 nM ac-p38α, cuvettes.
Consider `CC(C)(C)c1cc(NC(=O)Nc2ccc(Cl)cc2)n(-c2ccc(C(F)(F)F)cc2Cl)n1` [7, RL19], for which the Kd entry is on record as “No Binding”.

Still in this assay, the particulars now being: pyrazolourea derivatives of BIRB-796; 50 nM ac-p38α, cuvettes; read-out: Kd.
Regarding `Cc1ccc(-n2nc(C(C)(C)C)cc2NC(=O)Nc2ccc(Cl)cc2)cc1` [12c, RL17], the Kd was determined as 0.034 µM. Consider `Cc1ccccc1-n1nc(C(C)(C)C)cc1NC(=O)Nc1ccc(Cl)cc1` [12D, RL15], for which the Kd came to 0.347 µM.

As to `Cc1ccc(-n2nc(C(C)(C)C)cc2NC(=O)Nc2cccc3ccccc23)cc1` [14a, RL36], the Kd came out at 0.011 µM.

Take `Cc1ccc(-n2nc(C(C)(C)C)cc2NC(=O)Nc2ccc(Cl)cc2)cc1Cl` [12b, RL18]: the Kd came out at 0.018 µM.

The target of another assay is T1, p38α. Put plainly: ac-p38α real-time fluorescence measurements of binding and dissociation kinetics. Particulars: HTS hit, real-time kinetic measurement. Here is the method: The conditions for such measurements are currently being further optimized (buffer, temperature, protein and inhibitor concentrations, length of incubation).
The addition of excess kinase causes the inhibitor to redistribute, resulting in a net dissociation of inhibitor from ac-p38α and a fluorescence increase which was fit to a first-order function.
After measuring koff for allosteric compounds, Applicants established conditions for measuring the kon of the same compounds. This was accomplished using the cuvette method by adding various concentrations of inhibitor to ac-p38α and fitting the fluorescence decay to a first-order function.
In the case of `Cc1ccc(C(=O)NCCC23CC4CC(CC(C4)C2)C3)cc1NC1=NC2CS(=O)(=O)CC2S1` (stereo not drawn) [HTS 12], the t1/2 of binding is around 0.633 min.

The assay is the same for the next values; noted with them: cuvette method, acrylodan emission at 468 nm.
`Cc1nc(Nc2ncc(C(=O)Nc3c(C)cccc3Cl)s2)cc(N2CCN(CCO)CC2)n1` [Dasatinib]: the “real-time fluorescence response upon addition to ac-p38α” value is reported as “instantaneous fluorescence response”. For the compound `Fc1ccc(-c2nc3n(c2-c2ccncc2)CCS3)cc1` [SKF86002, reference compound], the “real-time fluorescence response upon addition to ac-p38α” value is on record as “instantaneous response”.

Still in this assay, the particulars now being: t1/2 = ln 2/kobs.
On to `Cc1ccc(-n2nc(C(C)(C)C)cc2NC(=O)Nc2ccc(OCCN3CCOCC3)cc2)cc1` [15, RL39], for which the t1/2 of dissociation is reported as 11.2 min. In turn, `CNC(=O)c1cc(Oc2ccc(NC(=O)Nc3ccc(Cl)c(C(F)(F)F)c3)cc2)ccn1` [sorafenib, reference compound] returned a t1/2 of dissociation of 2.4 min.

`Cc1cccc(-n2nc(C(C)(C)C)cc2NC(=O)Nc2ccc(Cl)cc2)c1` [12a, RL29] came in with a t1/2 of dissociation of 52.3 min.

The next assay addresses p38α (Homo sapiens, UniProt Q16539). Put plainly: HTRF kinase assay (CisBio), activity-based, p38α. The assay is classed as biochemical. The conditions noted are these: compounds HTS 1-15.
In the case of `O=C(CSc1cn(CCNC(=O)c2cccc(C(F)(F)F)c2)c2ccccc12)Nc1ccc2c(c1)OCCO2` [HTS 13], 1.1 ± 0.4 µM corresponded to half-maximal inhibition (IC50). Same read-out and setting: the figure for `O=C(c1ccc(CSc2nc3ccncc3[nH]2)cc1)N1CCC(Cc2ccccc2)CC1` [HTS 11] is 2.6 ± 0.92 µM; for `CC(=O)Nc1ccc(C(=O)Nc2ccc(-c3nc4cc(NC(=O)c5ccc(NC(C)=O)cc5)ccc4[nH]3)cc2)cc1` [HTS 7] it is 15.3 ± 2.8 µM; for `CCc1ccc(NCc2cc3cc(OC)c(OC)cc3n(CC(=O)Nc3cc(C)ccc3C)c2=O)cc1` [HTS 9] it is 25.6 ± 4.7 µM. Turning to `NS(=O)(=O)c1ccc(CCNc2nc3c(-c4cccc(C(F)(F)F)c4)nnn3c3ccccc23)cc1` [HTS 6], the IC50 was above 50 µM. On the same count and under the same terms, the figure for `CCOC(=O)c1c(C)c(C(=O)N2CCN(Cc3ccccc3)CC2)c(C)n1CC` [HTS 8] is 2.6 ± 0.9 µM; for `Cc1ccc(NCc2cc3cc4c(cc3n(CC(=O)Nc3ccccc3F)c2=O)OCCO4)cc1` [HTS 10] it is 31.3 ± 17.2 µM; for `Fc1cccc(COc2ccc(Nc3ncnc4ccccc34)cc2Cl)c1` [HTS 4] it is above 50 µM. Take `Cc1ccc(C(=O)NCCC23CC4CC(CC(C4)C2)C3)cc1NC1=NC2CS(=O)(=O)CC2S1` (stereo not drawn) [HTS 12]: 11 ± 1.5 µM corresponded to half-maximal inhibition (IC50). On the same count and under the same terms, the figure for `COC(=O)C1=CO[C@@H](C)[C@H]2CN3CCc4c([nH]c5cc(OC)ccc45)[C@H]3C[C@@H]12` [HTS 3] is 18.3 ± 7.2 µM; for `O=C(CN1C(=O)c2cccc3cccc1c23)Nc1cccc(C(F)(F)F)c1` [HTS 5] it is above 50 µM.

A further assay concerns PC3 cells. Put plainly: cell-to-cell contacts by light microscopy, PC3 cells. The assay is classed as cell-based. Particulars: 24 hours treatment; 11c 10 μM, dasatinib 100 nM. The text has this:
(§1) Reduction of cell-to-cell-contacts and cell proliferation in PC3 and DU145 cells by (11c, RL46). […] Total expression of FAK was unchanged while cSrc expression was increased in both cell lines. (b). Cell-to-cell contacts visualized by light microscopy at 10× magnification.
In the case of `Cc1nc(Nc2ncc(C(=O)Nc3c(C)cccc3Cl)s2)cc(N2CCN(CCO)CC2)n1` [Dasatinib], the “cell-to-cell contacts and intact cells” value was “markedly reduced cell-to-cell-contacts and fewer intact cells”.

The next assay relates to DU145 cells. Description: immunoblot analysis of pSrc and pFAK in DU145 cells. The assay is classed as cell-based. Particulars: 5 hr treatment; 11c 1, 2, 5, 10 μM, dasatinib 100 nM. The procedure: (§2) PC3 and DU145 were generously provided by Dr. Roman Thomas (Max Planck Institute for Neurological Research, Cologne). The cells were cultured in Dulbecco's modified Eagle's medium (DMEM) supplemented with 10% heat-inactivated fetal bovine serum (FBS) and 100 units/mL penicillin/streptomycin. Cells were cultured at 37° C. in humidified air containing 5% CO2. After inhibitor treatment (5 h), the cells were washed twice in cold phosphate-buffered saline (PBS) and then lysed for 10 min on ice in lysis buffer (20 mM Tris-HCl pH 7.5, 150 mM NaCl, 1% Triton, 1 mM Na2EDTA, 1 mM EGTA, 2.5 mM sodium pyrophosphate, 1 mM β-glycerophosphate, 1 mM Na3VO4, 1 μg/mL leupeptin, 1 mM PMSF, and common protease inhibitors). Subsequently, cells were centrifuged for 20 min at 20000×g and 4° C. The supernatant was subjected to immunoblot analysis.
(§3) Protein concentration was measured using a spectrophotometer (ND-1000, peQLab). Equal amounts of protein were separated by SDS-PAGE and transferred to nitrocellulose membranes. […] After washing, blots were incubated with secondary antibodies and then detected on film using the enhanced chemiluminescence (ECL) detection system.
(§4) Applicants monitored the phosphorylation state of Y416—an autophosphorylation site in the activation loop of cSrc—and Y576/Y577—two residues in the activation loop of focal adhesion kinase (FAK). […]
Consider `Cc1nc(Nc2ncc(C(=O)Nc3c(C)cccc3Cl)s2)cc(N2CCN(CCO)CC2)n1` [Dasatinib], for which the “pSrc and pFAK levels” value was “markedly reduced”.

A further assay concerns DU145 cells. Put plainly: cell-to-cell contacts by light microscopy, DU145 cells. It counts as cell-based. Particulars: 24 hours treatment; 11c 10 μM, dasatinib 100 nM.
Excerpt: as §1
`Cc1nc(Nc2ncc(C(=O)Nc3c(C)cccc3Cl)s2)cc(N2CCN(CCO)CC2)n1` [Dasatinib]: the “cell-to-cell contacts and intact cells” value was “markedly reduced cell-to-cell-contacts and fewer intact cells”.

The target in another assay is T2, cSrc (Gallus gallus, UniProt P00523, C277S/C483S/C496S/L407C).
T2 construct: The chicken cSrc gene (residues 251-533); His tag with PreScission site (N, cleaved yes); made in house; host or cells: E. coli BL21(DE3) Codon+RIL
Description: acrylodan-labeled cSrc fluorescence binding assay. Also noted: species or system chicken. Particulars: any concentration.
Description: Acrylodan-labeled cSrc (50 nM) was placed into cuvettes with a rapidly stirring mini stir bar while monitoring acrylodan fluorescence (left panel).
Crystal structures of chicken cSrc (kinase domain) in the DFG-in and DFG-out conformations were closely examined to identify a suitable fluorophore attachment site near the N-terminal end of the activation loop of cSrc which would report the binding of allosteric inhibitors by sensing changes in the activation loop conformation. Care was taken to not choose residues that were known phosphorylation sites or other sites that appeared to be critical to maintaining protein stability. A Cys was introduced into the chosen position (L407C) by site-directed mutagenesis while non-specific labeling was minimized by conservatively mutating other solvent exposed Cys into Ser (C277S, C483S, C496S).
Pure cSrc kinase containing the labeling site Cys mutation (L407C) and acrylodan (dissolved in DMF) were combined in buffer (pH 7.0) at a ratio of 1:1.5 protein:fluorophore and allowed to react in the dark overnight at 4° C. […] The labeled cSrc was then aliquoted, kept dark and frozen at −20° C.
Screening initiatives were carried out for acrylodan-labeled cSrc in 384-well plates. Stocks of candidate compounds were prepared in DMSO at 20× the final desired concentration. […]
Consider `CC(C)(C)c1cc(NC(=O)Nc2ccc(Cl)cc2)n(-c2ccc(C(F)(F)F)cc2Cl)n1` [7, RL19], for which the fluorescence ratio response result is reported as “did not respond”.

The test system of the next assay is PC3 cells. Description: immunoblot analysis of pSrc and pFAK in PC3 cells. The assay is classed as cell-based. Particulars: 5 hr treatment; 11c 1, 2, 5, 10 μM, dasatinib 100 nM. Here is the method:
as §2, §3, §4
With `Cc1nc(Nc2ncc(C(=O)Nc3c(C)cccc3Cl)s2)cc(N2CCN(CCO)CC2)n1` [Dasatinib], the “pSrc and pFAK levels” value is on record as “markedly reduced”.

The next assay deals with T1, p38α. Description: HTS screen with acrylodan-labeled p38α, 384-well secondary screen for Kd. The conditions noted are these: compounds HTS 1-15. It counts as binding. The procedure: The complete screen was carried out by first using the labeled kinase binding assay in a 384-well HTS format to initially screen for possible ligands for the DFG-out conformation, or DFG-out binders. This was accomplished by first performing a primary screen at a single concentration of each ligand, followed by a secondary screen over a range of concentrations to directly determine the Kd of each potential hit.
The methods for the setup and execution of the screen are provided below. […] Large volumes of the same buffer were also use to prepare solutions for pipetting background (no labeled kinase added) and screening plates (+100 nM acrylodan-labeled p38α).
An industrial pipetting robot was used to first dispense […] of pre-diluted compounds into a set of two 384-well small volume assay plates. Subsequently, 15 μl of buffer was added to the background plate while the same volume of buffer containing the labeled kinase was added to the screening plate to detect DFG-out binders. […] A Tecan Safire^2 instrument was used to measure the fluorescence read-out in the 384-well plate format.
A secondary screen was carried out also in 384-well plates using a range of concentrations (100 nM to 50 μM) of each ligand in order to generate binding curves or identify false hits which were picked up due to high degrees of fluorescence interference. […] As before, large volumes of the same buffer were also used to prepare solutions for pipetting background (no labeled kinase added) and screening plates (+100 nM acrylodan-labeled p38α). The pipetting robot was used to first dispense 3.5 μl of pre-diluted compounds into a set of two 384-well small volume assay plates. Each plate contained no more than 7 different compounds identified in the primary screen, each screened at 10 concentrations (100 nM to 50 μM) and 4 wells per concentration. Subsequently, 3.5 μl of buffer was added to the background plate while the same volume of buffer containing the labeled kinase was added to the screening plate. Plates were sealed, incubated and measured as described for the primary screen. […] An exemplary sample plate layout is shown below.
Where indicated, binding curves were also plotted as % p38α bound by the ligand. The % p38α bound is calculated as follows: […]
For the compound `O=C(c1ccc(CSc2nc3ccncc3[nH]2)cc1)N1CCC(Cc2ccccc2)CC1` [HTS 11], the Kd was found to be 2.3 ± 0.57 µM.

As to `CC(=O)Nc1ccc(C(=O)Nc2ccc(-c3nc4cc(NC(=O)c5ccc(NC(C)=O)cc5)ccc4[nH]3)cc2)cc1` [HTS 7], the affinity, expressed as Kd, was 6.18 ± 2.31 µM. On the same count and under the same terms, the same measure for `CCc1ccc(NCc2cc3cc(OC)c(OC)cc3n(CC(=O)Nc3cc(C)ccc3C)c2=O)cc1` [HTS 9]: 24.9 ± 4.9 µM; for `NS(=O)(=O)c1ccc(CCNc2nc3c(-c4cccc(C(F)(F)F)c4)nnn3c3ccccc23)cc1` [HTS 6]: 0.301 ± 0.059 µM.

As to `Cc1ccc(NCc2cc3cc4c(cc3n(CC(=O)Nc3ccccc3F)c2=O)OCCO4)cc1` [HTS 10], the Kd is 29.4 ± 4 µM.

In turn, `Fc1cccc(COc2ccc(Nc3ncnc4ccccc34)cc2Cl)c1` [HTS 4] displayed a Kd of 10.3 ± 2.2 µM. `Cc1ccc(C(=O)NCCC23CC4CC(CC(C4)C2)C3)cc1NC1=NC2CS(=O)(=O)CC2S1` (stereo not drawn) [HTS 12]: the Kd is 1.3 ± 0.08 µM. On the same count and under the same terms, the figure for `Brc1cccc(-c2nc3cnccn3c2NC2CCCC2)c1` [HTS 15] is 27.5 ± 5.3 µM; for `COC(=O)C1=CO[C@@H](C)[C@H]2CN3CCc4c([nH]c5cc(OC)ccc45)[C@H]3C[C@@H]12` [HTS 3] it is 2.2 ± 0.11 µM.

Turning to `Clc1cccc(-c2nc3cnccn3c2NC2CCCCC2)c1` [HTS 14], the Kd amounted to 100 ± 5.8 µM. On the same count and under the same terms, the figure for `O=C(CN1C(=O)c2cccc3cccc1c23)Nc1cccc(C(F)(F)F)c1` [HTS 5] is 3.1 ± 0.91 µM.
